Experiment [1] deals with leukemia cell line KG-1a. Put plainly: Cell proliferation inhibitory activity, KG-1a. It is filed as cell-based. To be noted: Homo sapiens, 96 h, cells counted 4 days later with Cell Counting Kit-8. The method, then: (§1) Evaluations were carried out using colon carcinoma cell line SW620 (Cat. No. CCL-227), lung carcinoma cell line NCI-H460 (Cat. No. HTB-177), prostate cancer cell line DU 145 (Cat. No. HTB-81), breast cancer cell line MDA-MB-231 (Cat. No. HTB26) and leukemia cell line KG-1a (Cat. No. CCL-246.1) purchased from ATCC, pancreatic cancer cell line MIAPaCa-2 (Cat. No. CRL-1420) purchased from Dainippon Pharmaceutical, and ovarian cancer cell line IGROV1 received from the Netherland Cancer Institute. The cells were cultured under the conditions recommended by the supplier for each cell line, or with respect to IGROV1, according to the method described in Cancer Res. 59: 4559-4563, 1999. Cells suspended in media were added to solutions containing the test substances at various concentrations followed by culturing in a 5% CO2 incubator at 37° C. The numbers of cells were counted 4 days later with the Cell Counting Kit-8. IC50 values were calculated by assigning measured values in the case of not containing a test substance to an inhibition of 0%, and assigning measured values in the case of not containing a test substance or cells to an inhibition of 100%.
In general terms: Tetrazolium dyes change colour on reduction, which living cells bring about.

Experiment [2] has as its target T1, CDK3/Cyclin E complex (Homo sapiens, UniProt Q00526).
T1 construct: purchased Upstate Inc. 14-487
Put plainly: In vitro kinase assay, CDK3/Cyclin E complex. In kind it is biochemical. To be noted: recombinant protein (Upstate); read-out: CDK3/cyclinE IC50. The method, then: (§2) Inhibitory activity against Aurora A, CDK1/Cyclin B complex, CDK2/Cyclin E complex and CDK3/Cyclin E complex were measured by in vitro kinase assay using recombinant proteins.

Experiment [3] addresses CDK2/Cyclin E complex (Homo sapiens, UniProt P24941). In words: In vitro kinase assay, CDK2/Cyclin E complex. It is filed as biochemical. To be noted: recombinant protein (Upstate); read-out: CDK2/cyclinE IC50. On the procedure:
as §2

For experiment [4], the target named is T2, CDK1/Cyclin B complex (Homo sapiens, UniProt P06493).
T2 construct: purchased Upstate Inc. 14-450
In words: In vitro kinase assay, CDK1/Cyclin B complex. It is filed as biochemical. To be noted: recombinant protein (Upstate). On the procedure:
(§3) Inhibitory activity against Aurora A, CDK1/Cyclin B complex, CDK2/Cyclin E complex and CDK3/Cyclin E complex were measured by in vitro kinase assay using recombinant proteins. The assays were carried out by using recombinant proteins (Upstate Inc.) for Aurora A, CDK1/Cyclin B complex, CDK2/Cyclin E complex and CDK3/Cyclin E complex (respective cat. nos. 14-511, 14-450, 14-448 and 14-487), in accordance with the procedure described in the product instructions thereof. The 50% inhibitory concentrations (IC50 values) were calculated by assigning measured values in the case of not containing a test compound to an inhibition of 0%, and assigning measured values in the case of not containing a test compound and enzyme to an inhibition of 100%.

The test system of experiment [5] is lung carcinoma cell line NCI-H460. In words: Cell proliferation inhibitory activity, NCI-H460. Conditions: Homo sapiens, 96 h, cells counted 4 days later with Cell Counting Kit-8. It is filed as cell-based. On the procedure:
as §1

The test system of experiment [6] is colon carcinoma cell line SW620. In words: Cell proliferation inhibitory activity, SW620. It is filed as cell-based, human. Conditions: cells counted 4 days later with Cell Counting Kit-8. On the procedure: as §1
The target in experiment [7] is T3, Aurora A (Homo sapiens, UniProt O14965).
T3 construct: purchased Upstate Inc. 14-511
T3 sequence (O14965 1-403): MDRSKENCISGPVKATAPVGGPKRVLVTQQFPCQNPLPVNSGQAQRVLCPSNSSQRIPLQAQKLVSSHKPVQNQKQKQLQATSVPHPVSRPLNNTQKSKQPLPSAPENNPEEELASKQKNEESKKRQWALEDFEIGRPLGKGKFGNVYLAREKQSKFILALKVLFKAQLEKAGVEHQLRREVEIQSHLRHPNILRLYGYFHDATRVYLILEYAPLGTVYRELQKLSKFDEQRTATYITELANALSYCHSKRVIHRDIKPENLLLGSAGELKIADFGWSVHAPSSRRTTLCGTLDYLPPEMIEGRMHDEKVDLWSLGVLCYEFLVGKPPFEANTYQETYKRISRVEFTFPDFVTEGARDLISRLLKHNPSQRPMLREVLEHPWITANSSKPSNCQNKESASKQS
Put plainly: In vitro kinase assay, Aurora A. Conditions: recombinant protein (Upstate). In kind it is biochemical. On the procedure:
as §3

Experiment [8] deals with prostate cancer cell line DU 145. Put plainly: Cell proliferation inhibitory activity, DU 145. In kind it is cell-based, human. To be noted: cells counted 4 days later with Cell Counting Kit-8. The method, then: as §1

T2 sequence (P06493 whole entry): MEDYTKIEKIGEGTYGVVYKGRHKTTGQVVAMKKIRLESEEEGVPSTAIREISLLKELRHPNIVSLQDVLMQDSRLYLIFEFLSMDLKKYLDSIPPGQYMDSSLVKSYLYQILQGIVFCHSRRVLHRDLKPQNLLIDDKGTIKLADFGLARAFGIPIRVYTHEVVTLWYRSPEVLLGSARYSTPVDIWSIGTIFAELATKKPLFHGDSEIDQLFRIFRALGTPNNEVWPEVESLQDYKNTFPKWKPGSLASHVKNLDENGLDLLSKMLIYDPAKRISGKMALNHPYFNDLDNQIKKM
T2 sequence (P14635 whole entry partner): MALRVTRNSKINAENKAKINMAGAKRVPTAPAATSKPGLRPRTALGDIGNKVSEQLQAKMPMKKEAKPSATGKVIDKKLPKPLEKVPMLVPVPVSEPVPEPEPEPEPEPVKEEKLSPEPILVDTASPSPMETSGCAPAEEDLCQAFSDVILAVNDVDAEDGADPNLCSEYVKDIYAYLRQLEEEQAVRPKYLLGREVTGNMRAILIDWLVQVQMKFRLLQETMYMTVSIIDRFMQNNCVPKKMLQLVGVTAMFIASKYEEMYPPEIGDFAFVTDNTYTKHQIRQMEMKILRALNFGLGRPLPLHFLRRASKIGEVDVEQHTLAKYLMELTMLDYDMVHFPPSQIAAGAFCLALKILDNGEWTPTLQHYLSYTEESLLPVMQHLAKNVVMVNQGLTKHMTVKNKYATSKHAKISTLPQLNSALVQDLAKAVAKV
T1 sequence (Q00526 whole entry): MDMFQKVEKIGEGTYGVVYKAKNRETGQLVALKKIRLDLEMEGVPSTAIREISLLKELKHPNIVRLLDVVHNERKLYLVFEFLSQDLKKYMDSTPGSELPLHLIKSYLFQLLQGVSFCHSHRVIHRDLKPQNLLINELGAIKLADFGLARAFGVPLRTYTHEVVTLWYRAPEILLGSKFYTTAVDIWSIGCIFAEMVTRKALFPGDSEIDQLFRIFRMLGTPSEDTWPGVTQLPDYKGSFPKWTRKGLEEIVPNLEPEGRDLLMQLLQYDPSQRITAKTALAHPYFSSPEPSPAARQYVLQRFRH
T1 sequence (P24864 whole entry partner): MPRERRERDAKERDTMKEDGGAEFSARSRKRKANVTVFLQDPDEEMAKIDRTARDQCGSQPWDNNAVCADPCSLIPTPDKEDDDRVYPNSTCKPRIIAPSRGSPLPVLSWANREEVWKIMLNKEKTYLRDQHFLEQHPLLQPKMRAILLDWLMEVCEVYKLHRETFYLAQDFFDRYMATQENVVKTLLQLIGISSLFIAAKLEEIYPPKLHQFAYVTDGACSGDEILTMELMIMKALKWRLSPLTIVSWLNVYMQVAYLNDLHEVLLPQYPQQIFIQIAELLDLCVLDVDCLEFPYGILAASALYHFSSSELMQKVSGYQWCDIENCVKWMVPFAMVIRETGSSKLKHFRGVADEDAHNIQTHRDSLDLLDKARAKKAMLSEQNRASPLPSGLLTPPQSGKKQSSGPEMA

In the case of `O=C(CNc1ccc(Cl)cc1)Nc1nc2ccc3[nH]ncc3c2s1` [compound 9], the IC50 in experiment [1] was less than 100 nM; in experiment [2], 81 nM; in experiment [3], 40 nM; in experiment [4] it was 372 nM.

As for `CC(C)CC(Nc1cccc(O)c1)C(=O)Nc1nc2ccc3[nH]ncc3c2s1` (stereo not shown) [compound 25], the IC50 in experiment [1] is less than 100 nM; in experiment [2], 448 nM; in experiment [5], 3200 nM; in experiment [3], 366 nM; in experiment [6] (Homo sapiens, SW-620, 96 h), 1600 nM; in experiment [7], 137 nM.

For `CCOC(=O)c1cc(NC(C)(C)C(=O)Nc2nc3ccc4[nH]ncc4c3s2)ccc1Cl` [compound 44], the IC50 in experiment [1] is less than 100 nM; in experiment [8] (Homo sapiens, 96 h) it was 4500 nM; in experiment [2] it was 157 nM; in experiment [3] it was 160 nM; in experiment [7] it was 107 nM.

Regarding `CC(C)(Nc1ccc(Cl)cc1)C(=O)Nc1nc2c(C(F)(F)F)cc3[nH]ncc3c2s1` [compound 59], the IC50 was determined as 4200 nM in experiment [8] and 2200 nM in experiment [6].

As to `CC(C)(Nc1ccc(F)c(F)c1)C(=O)Nc1nc2c(C(F)(F)F)cc3[nH]ncc3c2s1` [compound 72], the IC50 is 3500 nM in experiment [8] (Homo sapiens, 96 h); 180 nM in experiment [2]; 335 nM in experiment [3]; 2400 nM in experiment [6] (Homo sapiens, SW-620, 96 h).

Consider `CC(C)(Nc1ccc(F)cc1)C(=O)Nc1nc2c(C(F)(F)F)cc3[nH]ncc3c2s1` [compound 74], for which the IC50 in experiment [8] (Homo sapiens, 96 h) amounted to 3900 nM; in experiment [2] it was 163 nM; in experiment [3], 302 nM; in experiment [6] (Homo sapiens, SW-620, 96 h) it was 2700 nM.

In the case of `CC(C)(Nc1cccc(NS(C)(=O)=O)c1)C(=O)Nc1nc2c(C(F)(F)F)cc3[nH]ncc3c2s1` [compound 79], the IC50 in experiment [8] (Homo sapiens, 96 h) turned out to be 3100 nM; in experiment [2] it was 266 nM; in experiment [3], 171 nM; in experiment [6] (Homo sapiens, SW-620, 96 h), 2400 nM.

Regarding `CC(C)(Nc1ccc(Cl)c(NC(=O)C2CC2)c1)C(=O)Nc1nc2c(C(F)(F)F)cc3[nH]ncc3c2s1` [compound 80], the IC50 in experiment [8] (Homo sapiens, 96 h) turned out to be 4100 nM; in experiment [2] it was 165 nM; in experiment [3], 154 nM; in experiment [6] (Homo sapiens, SW-620, 96 h) it was 2300 nM.

`CC(C)(Nc1cccc(C(=O)NCC(=O)OCCO)c1)C(=O)Nc1nc2c(C(F)(F)F)cc3[nH]ncc3c2s1` [compound 86]: the IC50 in experiment [2] amounted to 85 nM; in experiment [3], 274 nM; in experiment [4], 483 nM; in experiment [7], 66 nM.

Consider `CC(C)(Nc1ccc(Cl)c(NC(=O)OCCO)c1)C(=O)Nc1nc2c(C(F)(F)F)cc3[nH]ncc3c2s1` [compound 89], for which the IC50 in experiment [8] (Homo sapiens, 96 h) amounted to 4500 nM; in experiment [2], 105 nM; in experiment [3] it was 225 nM; in experiment [6] (Homo sapiens, SW-620, 96 h) it was 2200 nM.

As to `CC(C)(Nc1ccc(Cl)nc1)C(=O)Nc1nc2c(C(F)(F)F)cc3[nH]ncc3c2s1` [compound 96], the IC50 in experiment [8] (Homo sapiens, 96 h) worked out at 3600 nM; in experiment [2], 277 nM; in experiment [5], 3900 nM; in experiment [3], 347 nM; in experiment [6] (Homo sapiens, SW-620, 96 h) it was 2300 nM.

In the case of `CC(C)(Nc1cccc(C(=O)NCCC(N)=O)c1)C(=O)Nc1nc2c(C(F)(F)F)cc3[nH]ncc3c2s1` [compound 101], the IC50 was 4400 nM in experiment [8] (Homo sapiens, 96 h); 21 nM in experiment [2]; 30 nM in experiment [3]; 39 nM in experiment [4]; 2000 nM in experiment [6] (Homo sapiens, SW-620, 96 h); 118 nM in experiment [7].

Regarding `CC(C)(Nc1ccc(Cl)c(C(=O)NCCCS(N)(=O)=O)c1)C(=O)Nc1nc2c(C(F)(F)F)cc3[nH]ncc3c2s1` [compound 102], the IC50 was 30 nM in experiment [2], 76 nM in experiment [3], 105 nM in experiment [4] and 39 nM in experiment [7].

Regarding `CC(C)(Nc1ccc(Cl)c(C(=O)O)c1)C(=O)Nc1nc2c(C(F)(F)F)cc3[nH]ncc3c2s1` [compound 136], the IC50 in experiment [2] came to 99 nM; in experiment [3], 295 nM; in experiment [4], 446 nM; in experiment [7] it was 19 nM.

Take `CC(C)(Nc1cccc(C(=O)NCCCC(=O)O)c1)C(=O)Nc1nc2c(C(F)(F)F)cc3[nH]ncc3c2s1` [compound 140]: the IC50 in experiment [2] amounted to 160 nM; in experiment [3], 428 nM; in experiment [4] it was 446 nM; in experiment [7], 247 nM.
